As a reminder, the IC50 is the concentration at which inhibition is half-maximal. Lower therefore signals higher potency.

Molecules are shown by their SMILES.

Chain of Integrin alpha-4/beta-1 (P05556 whole entry, the tested form may be a part): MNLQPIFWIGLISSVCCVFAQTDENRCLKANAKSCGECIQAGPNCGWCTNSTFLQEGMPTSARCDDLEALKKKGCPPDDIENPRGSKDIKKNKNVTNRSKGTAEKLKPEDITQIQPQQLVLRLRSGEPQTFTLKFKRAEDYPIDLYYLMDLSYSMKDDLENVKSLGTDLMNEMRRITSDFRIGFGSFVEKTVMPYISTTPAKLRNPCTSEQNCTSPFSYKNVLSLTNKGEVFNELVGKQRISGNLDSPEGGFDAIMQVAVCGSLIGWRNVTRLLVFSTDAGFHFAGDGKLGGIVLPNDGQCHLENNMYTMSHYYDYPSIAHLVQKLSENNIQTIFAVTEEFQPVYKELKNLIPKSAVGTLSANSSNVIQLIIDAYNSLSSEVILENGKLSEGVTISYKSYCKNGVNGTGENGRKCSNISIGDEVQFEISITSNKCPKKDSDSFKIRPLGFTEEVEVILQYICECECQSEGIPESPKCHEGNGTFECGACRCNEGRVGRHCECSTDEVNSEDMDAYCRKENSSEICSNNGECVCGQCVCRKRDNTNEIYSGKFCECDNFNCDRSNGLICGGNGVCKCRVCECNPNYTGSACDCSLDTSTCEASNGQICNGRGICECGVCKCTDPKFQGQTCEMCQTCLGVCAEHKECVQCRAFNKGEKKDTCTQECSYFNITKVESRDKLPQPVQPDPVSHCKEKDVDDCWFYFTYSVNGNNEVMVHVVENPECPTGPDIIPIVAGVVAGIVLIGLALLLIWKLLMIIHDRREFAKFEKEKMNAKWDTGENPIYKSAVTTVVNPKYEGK
Chain of Integrin alpha-4/beta-1 (P13612 whole entry, the tested form may be a part): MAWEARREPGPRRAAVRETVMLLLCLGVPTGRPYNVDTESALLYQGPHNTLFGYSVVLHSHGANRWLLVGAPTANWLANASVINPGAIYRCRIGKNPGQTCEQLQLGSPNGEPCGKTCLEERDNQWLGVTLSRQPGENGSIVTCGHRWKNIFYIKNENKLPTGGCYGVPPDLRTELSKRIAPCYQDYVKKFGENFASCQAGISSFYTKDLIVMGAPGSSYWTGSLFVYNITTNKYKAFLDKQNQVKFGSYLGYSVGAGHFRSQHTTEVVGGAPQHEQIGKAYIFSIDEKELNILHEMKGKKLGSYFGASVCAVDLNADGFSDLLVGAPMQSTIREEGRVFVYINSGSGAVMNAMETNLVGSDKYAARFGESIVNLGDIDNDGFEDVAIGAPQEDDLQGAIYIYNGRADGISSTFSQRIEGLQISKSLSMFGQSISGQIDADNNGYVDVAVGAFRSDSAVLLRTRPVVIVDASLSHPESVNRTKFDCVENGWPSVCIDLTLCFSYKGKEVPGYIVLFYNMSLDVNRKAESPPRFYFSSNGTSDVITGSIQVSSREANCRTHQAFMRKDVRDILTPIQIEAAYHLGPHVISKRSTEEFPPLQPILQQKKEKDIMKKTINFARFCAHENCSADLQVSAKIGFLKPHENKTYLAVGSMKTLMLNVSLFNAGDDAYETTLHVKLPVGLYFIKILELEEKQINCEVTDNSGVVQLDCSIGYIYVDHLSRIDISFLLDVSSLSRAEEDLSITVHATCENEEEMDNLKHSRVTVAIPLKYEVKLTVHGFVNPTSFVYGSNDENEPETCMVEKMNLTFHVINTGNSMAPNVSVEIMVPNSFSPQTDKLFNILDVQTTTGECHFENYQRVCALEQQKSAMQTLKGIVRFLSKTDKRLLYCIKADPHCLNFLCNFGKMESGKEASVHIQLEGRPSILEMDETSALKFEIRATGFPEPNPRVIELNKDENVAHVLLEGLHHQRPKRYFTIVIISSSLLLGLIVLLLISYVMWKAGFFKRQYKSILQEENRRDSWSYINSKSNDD

This test addresses Integrin alpha-4/beta-1 (Homo sapiens, UniProt P05556+P13612). Kind of test: Inhibition of Very late antigen 4 (VLA-4) and VCAM-Ig fusion protein interaction. Type of test: protein-complex assay.
As for `Cc1ccccc1NC(=O)Nc1ccc(CC(=O)Nc2nc(CC(=O)O)cs2)cc1`, 15 µM corresponded to half-maximal inhibition (IC50).

The compound `Cc1ccccc1NC(=O)Nc1ccc(CC(=O)Nc2cn(CCC(=O)O)c(C)n2)cc1` returned an IC50 of 3 µM.

`Cc1ccccc1NC(=O)Nc1ccc(CC(=O)Nc2ccc3cnn(C(=O)NCC(=O)O)c3c2)cc1` came in with an IC50 of 0.8 µM.

Compound `Cc1ccccc1NC(=O)Nc1ccc(CC(=O)Nc2cccc(CCC(=O)O)c2)cc1` returned an IC50 of 11.4 µM.

With `Cc1ccccc1NC(=O)Nc1ccc(CC(=O)Nc2ccc(C(C)CC(=O)O)cc2)cc1` (configuration not stated), the IC50 worked out at 0.0013 µM.

`Cc1ccccc1NC(=O)Nc1ccc(CC(=O)Nc2cccc(C(O)CC(=O)O)c2)cc1` (configuration not stated) yielded an IC50 of 2 µM.

`Cc1ccccc1NC(=O)Nc1ccc(CC(=O)Nc2cccc(C(C)CC(=O)O)c2)cc1` (configuration not stated) had an IC50 of 2.5 µM.

For `Cc1ccccc1NC(=O)Nc1ccc(CC(=O)Nc2cccc(NC(=O)NCC(=O)O)c2)cc1`, 0.067 µM corresponded to half-maximal inhibition (IC50).

`Cc1ccccc1NC(=O)Nc1ccc(CC(=O)Nc2cccc(C(=O)NCC(=O)O)c2)cc1` returned an IC50 of 1.2 µM.

On to `CC(=O)NC(Cc1ccc(NC(=O)Cc2ccc(NC(=O)Nc3ccccc3C)cc2)cc1)C(=O)O` (configuration not stated), for which the IC50 was 0.058 µM.

In the case of `Cc1ccccc1NC(=O)Nc1ccc(CC(=O)Nc2nnc(SCC(=O)O)s2)cc1`, inhibition was half-maximal at 2.3 µM (IC50).

For the compound `C=C(S/C(=N\C(=O)Cc1ccc(NC(=O)Nc2ccccc2C)cc1)NCCC(=O)O)c1ccccc1`, inhibition was half-maximal at 20 µM (IC50).

For the origin of these results see ChEMBL document CHEMBL1135497, “Identification of potent and novel alpha4beta1 antagonists using in silico screening” (J Med Chem, 2002).
